# Results reported in patent publication US12678425B2, “Methods for treating against viruses” (Howard University, priority 2019, dated 2026).
# How the values were obtained:
# [1] = test system: HSV-1 ICP0 protein; test: Immunofluorescence and confocal microscopy of ICP0 in Hep-2 cells; assay type: cell-based; conditions: 10 μM, HSV-1 MOI 1.0, 30 h
# Procedure: The HEp-2 cells were infected with HSV-1 at an MOI of 1.0 for 30 h along with the indicated compounds and control. The cells were fixed with 4% paraformaldehyde and stained with anti-ICPO-FITC in green and DAPI (blue for DNA label in the nucleus). The slides were observed under a Nikon confocal microscope (60× magnification lens) and pictures were taken to show infected cells (green) and total cells (DAPI). All scale bars correspond to 20 μm. The imaging experiments were performed three independent times, and the results as shown are representative of one of three experiments.
# Hep-2 cells were grown to about 80% confluency in 12 well plate and the cells were co-infected with HSV-1 at an MOI of 1.0 for 30 h along with the indicated inhibitor compounds and control. The cells were fixed at room temperature with 4% paraformaldehyde-PBS for 15 minutes and then permeabilized at room temperature by 0.5% Triton X-100-PBS (pH 7.4) for 10 min. The cells were then washed 3× with Ice cold PBS. The cells were incubated with 1% BSA, 22.52 mg/mL glycine in PBST (PBS+0.1% Tween 20) for 30 min to block unspecific binding of the antibodies. The cells were incubated in the 1:500 diluted anti-ICP0 antibody in 1% BSA in PBST in a humidified chamber overnight at 4° C. […]
# [2] = test system: RACK1A Y248 phosphorylation; test: Immunoblot of ABA-induced RACK1A Y248 phosphorylation in seedlings; assay type: cell-based, Arabidopsis; conditions: 10 μM ABA, 12 hours
# [3] = test system: HEp-2 cells; test: Trypan blue exclusion cell viability; assay type: cell-based; conditions: 24-hour treatment
# Procedure: In order to assess whether the compounds are producing any toxicity that can led to the cell deaths, we evaluated the cell viability by the trypan blue exclusion method. As long-term inhibition of RACK1 expression has been reported to cell cycle arrest, we limited our experimental treatments to 24 h and evaluated the cell viability of almost full confluent cells after 24 h of compound treatment.
# In table 2, the viability of cells was measured with Trypan blue exclusion assay in a Cellometer (Nexcelom, Lawrence, MA). The percentage survival of the compound treated cells was evaluated along with the DMSO treated cells. The values represent the mean f SE of three separate well based replicates.
# [4] = test system: Hep-2 cells infected with HSV-1; test: Fluorescence cell sort in Cellometer, HSV-1 infected Hep-2 cells; assay type: cell-based, human; conditions: 24-h incubation, HSV-1 MOI 1.0
# Procedure: FIG. 13 depicts the quantification of fluorescent cells by Image based cell sorting in a Cellometer (Nexcelom Vision), based on the experiments depicted in FIG. 12. […] The cells were prepared by immunostaining with ICP0 antibody after 24-h incubation with the indicated compounds. The total cell counts were 1.01×10^6/ml, 4.69×10^6/ml, and 5.36×10^6/ml for DMSO, SD29-14 (10 μM), and SD29-14 (100 μM) respectively. The numbers show the mean f SE of three replicates.
# Fluorescence Cell Sort: Hep-2 cells were grown to about 80% confluency in T25 Cell culture flask and were co-infected with HSV-1 at a MOI of 1.0 for 24 h along with the indicated inhibitor compounds and control. After trypsinization, the cells were fixed in 4% paraformaldehyde-PBS. The cells were treated in the same method as described in the immunofluorescence and confocal microscopy method section. The labeled cells were counted in a Nexcelom Vision Cellometer equipped with Brightfield & 2 Fluorescence Channels Filter Set 101: Excitation/Emission Peak: 475 nm/535 nm and Filter Set 202: Excitation/Emission Peak: 525 nm/595 nm. […] Bright-field and fluorescent images were then captured and analyzed at four different locations by the Cellometer image analysis software to directly determine the cell concentration of fluorescently labelled cells. […]
# [5] = test system: HSV-1; test: Protection from HSV-1 cytopathic effect in HEp-2 cells (microscopy); assay type: cell-based; conditions: different concentrations, 24 h
# From the text: FIG. 15 depicts the results of in vitro testing to confirm the protective effect of a representative compound (SD-29-14) from the cytopathic effect caused by HSV-1. […] After washing away the virus with PBS, images were taken under a compound microscope.
# [6] = test system: Human Annexin A2; test: LC-MS of Annexin A2 abundance after compound treatment; assay type: cell-based; parameters: Annexin A2 fragment abundance: reference not given here; conditions: for Abundance ratio 1: SD29-14 over DMSO (10 uM); for Abundance ratio 2: SD29-14 over DMSO (100 uM)
# Procedure: To further confirm this mechanism of action, LC-MS (Liquid Chromatography-Mass Spectrometry) was conducted to determine the effect of RACK1 inhibition on ANXA2 expression.
structure (smiles),measurement,setting,value
Nn1c(S)nnc1-c1cc(Cl)cc(Cl)c1 [SD-29-14],expression of ICP0 protein (immunofluorescence),[1],effectively eliminated any expression of ICP0 protein
same,ABA-induced RACK1A Y248 phosphorylation,[2],prevented the ABA-induced Y248 phosphorylation
same,"HEp-2 Cell viability, Mean (percentage survival)",[3]; 10 μM,97.5%
same,"HEp-2 Cell viability, Mean (percentage survival)",[3]; 100 μM,93.7%
same,total cell counts,[4]; 10 μM,4.69e+06 mL⁻¹
same,total cell counts,[4]; 100 μM,5.36e+06 mL⁻¹
same,cytopathic effect caused by HSV-1,[5],do not show the cytopathic effect
same,abundance of human ANXA2,"[6]; LC-MS, SD29-14 treatment",increased abundance
same,Annexin A2 fragment abundance,"[6]; fragment DALNIETAIK, 10 uM",317727.9
same,Annexin A2 fragment abundance,"[6]; fragment DALNIETAIK, 100 uM",130507.6
same,Abundance ratio 1,[6]; fragment DALNIETAIK,7.765
same,Abundance ratio 2,[6]; fragment DALNIETAIK,3.19
same,Annexin A2 fragment abundance,"[6]; fragment GVDEVTIVNILTNR, 10 uM",133381
same,Annexin A2 fragment abundance,"[6]; fragment GVDEVTIVNILTNR, 100 uM",9540
same,Abundance ratio 1,[6]; fragment GVDEVTIVNILTNR,>100
same,Abundance ratio 2,[6]; fragment GVDEVTIVNILTNR,>100
same,Annexin A2 fragment abundance,"[6]; fragment TNQELQEINR, 10 uM",462054
same,Annexin A2 fragment abundance,"[6]; fragment TNQELQEINR, 100 uM",190293
same,Abundance ratio 1,[6]; fragment TNQELQEINR,10.502
same,Abundance ratio 2,[6]; fragment TNQELQEINR,4.325
